According to ChEMBL document CHEMBL1201862, “PubChem BioAssay data set” (2004):
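Dose response: 5 concentrations. Exposure: 48 h. Format: 96-well plates. Endpoint: linear interpolation; highest concentration if not reached. The concentration for 50% growth inhibition is given as GI50.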 Calls of active or inactive are those of the source. Rule as the data show it: active = GI50 up to about 1.1 µM and inactive = higher.

Tests used:
Experiment in all cases: NCI tumour cell line growth inhibition, 48 h
BT-549 = system: BT-549
CAKI-1 = system: CAKI-1
CCRF-CEM = system: CCRF-CEM
DU-145 = system: DU-145
EKVX = system: EKVX
HOP-62 = system: HOP-62
IGROV-1 = system: IGROV-1
K562 = system: K562
KM12 = system: KM12
MOLT-4 = system: MOLT-4
Malme-3M = system: Malme-3M
NCI-H226 = system: NCI-H226
NCI-H23 = system: NCI-H23
OVCAR-3 = system: OVCAR-3
SF-295 = system: SF-295
SK-MEL-28 = system: SK-MEL-28
SK-MEL-2 = system: SK-MEL-2
SK-OV-3 = system: SK-OV-3
SNB-19 = system: SNB-19
UACC-62 = system: UACC-62

Measured: GI50

O=C(O)C(Sc1ccc(Cl)cc1)Sc1ccc(Cl)cc1
inactive: BT-549 54.5 µM | CAKI-1 82.8 µM | CCRF-CEM 28.6 µM | DU-145 71 µM | EKVX 31.5 µM | HOP-62 79.3 µM | IGROV-1 39.8 µM | K562 33.1 µM | KM12 37.9 µM | MOLT-4 41.3 µM | Malme-3M 71 µM | NCI-H226 51.9 µM | NCI-H23 44.2 µM | OVCAR-3 32.6 µM | SF-295 46.9 µM | SK-MEL-28 70 µM | SK-MEL-2 26.3 µM | SK-OV-3 > 100 µM | SNB-19 40.6 µM | UACC-62 27.7 µM

Cc1cc(N(CCC#N)CCC#N)ccc1C(/N=N/c1ccc([N+](=O)[O-])cc1)=N\NC(=O)c1cc(Cl)ccc1C(=O)c1ccccc1
inactive: BT-549 19 µM | CAKI-1 12.5 µM | CCRF-CEM 2.98 µM | DU-145 10.9 µM | EKVX 6.11 µM | HOP-62 18.4 µM | IGROV-1 3.56 µM | K562 9.84 µM | KM12 9.1 µM | MOLT-4 4.65 µM | Malme-3M 13.2 µM | NCI-H226 10 µM | NCI-H23 13.3 µM | OVCAR-3 4.86 µM | SF-295 14.5 µM | SK-MEL-28 20.2 µM | SK-MEL-2 11.1 µM | SK-OV-3 13.5 µM | SNB-19 46.7 µM | UACC-62 11.1 µM

COC(=O)c1ccccc1C#CCCCOS(C)(=O)=O
inactive: BT-549 > 10 µM | CAKI-1 > 10 µM | CCRF-CEM > 10 µM | DU-145 > 10 µM | EKVX > 10 µM | HOP-62 > 10 µM | IGROV-1 > 10 µM | K562 > 10 µM | KM12 > 10 µM | MOLT-4 > 10 µM | Malme-3M > 10 µM | NCI-H226 > 10 µM | NCI-H23 > 10 µM | OVCAR-3 > 10 µM | SF-295 > 10 µM | SK-MEL-28 > 10 µM | SK-MEL-2 > 10 µM | SK-OV-3 > 10 µM | SNB-19 > 10 µM | UACC-62 > 10 µM

CC(=O)Nc1ccc(N2C(=O)/C(=C\c3cccc(Oc4ccccc4)c3)S(=O)(=O)C2c2ccccc2)cc1 (stereo not given)
inactive: BT-549 > 100 µM | CAKI-1 > 100 µM | CCRF-CEM 27.7 µM | DU-145 39.1 µM | EKVX > 100 µM | HOP-62 > 100 µM | IGROV-1 51.2 µM | K562 37.3 µM | KM12 > 100 µM | MOLT-4 28.2 µM | Malme-3M > 100 µM | NCI-H226 66.2 µM | NCI-H23 > 100 µM | OVCAR-3 49.4 µM | SF-295 89.5 µM | SK-MEL-28 91 µM | SK-MEL-2 > 100 µM | SK-OV-3 > 100 µM | SNB-19 90.2 µM | UACC-62 83.2 µM

Oc1nnnc2c1sc1ncccc12
inactive: BT-549 > 100 µM | CAKI-1 > 100 µM | CCRF-CEM > 100 µM | DU-145 > 100 µM | EKVX 63.1 µM | HOP-62 > 100 µM | IGROV-1 > 100 µM | K562 > 100 µM | KM12 > 100 µM | MOLT-4 > 100 µM | Malme-3M > 100 µM | NCI-H226 > 100 µM | NCI-H23 > 100 µM | OVCAR-3 > 100 µM | SF-295 > 100 µM | SK-MEL-28 > 100 µM | SK-MEL-2 > 100 µM | SK-OV-3 85.1 µM | SNB-19 > 100 µM | UACC-62 > 100 µM

C/C=C(\C)C(=O)OC1/C=C(\C)CC/C=C(\C)CC2OC(=O)C(C)(OC(C)=O)C12 (stereo not given)
inactive: BT-549 > 100 µM | CAKI-1 > 100 µM | CCRF-CEM > 100 µM | DU-145 > 100 µM | EKVX > 100 µM | HOP-62 > 100 µM | IGROV-1 > 100 µM | K562 > 100 µM | KM12 > 100 µM | MOLT-4 > 100 µM | Malme-3M > 100 µM | NCI-H226 > 100 µM | NCI-H23 > 100 µM | OVCAR-3 > 100 µM | SF-295 > 100 µM | SK-MEL-28 > 100 µM | SK-MEL-2 > 100 µM | SK-OV-3 > 100 µM | SNB-19 > 100 µM | UACC-62 > 100 µM

CC1=NN(c2nc(N)nc(CSc3cc(Cl)c(C)cc3S(N)(=O)=O)n2)C(C)(C)C1
inactive: BT-549 > 10 µM | CAKI-1 > 10 µM | CCRF-CEM > 10 µM | DU-145 > 10 µM | EKVX > 10 µM | HOP-62 > 10 µM | IGROV-1 > 10 µM | K562 > 10 µM | KM12 > 10 µM | MOLT-4 > 10 µM | Malme-3M > 10 µM | NCI-H226 > 10 µM | NCI-H23 > 10 µM | OVCAR-3 > 10 µM | SF-295 > 10 µM | SK-MEL-28 > 10 µM | SK-MEL-2 > 10 µM | SK-OV-3 > 10 µM | SNB-19 > 10 µM | UACC-62 > 10 µM

C[C@]12C=CC(=O)C=C1CC[C@@H]1[C@@H]2CC[C@]2(C)OC(=O)CC[C@@H]12 [TESTOLACTONE]
inactive: BT-549 237 µM | CAKI-1 372 µM | CCRF-CEM 431 µM | DU-145 > 343 µM | EKVX 318 µM | HOP-62 > 467 µM | IGROV-1 453 µM | K562 449 µM | KM12 > 500 µM | MOLT-4 375 µM | Malme-3M 480 µM | NCI-H226 417 µM | NCI-H23 > 491 µM | OVCAR-3 479 µM | SF-295 > 500 µM | SK-MEL-28 498 µM | SK-MEL-2 > 478 µM | SK-OV-3 > 479 µM | SNB-19 > 500 µM | UACC-62 323 µM
